{"source": "paper PMC4922569", "about": "“Antifibrotic Effects of the Dual CCR2/CCR5 Antagonist Cenicriviroc in Animal Models of Liver and Kidney Fibrosis” (PLoS ONE, 2016)", "key": {"[1]": {"system": "CCL2-mediated chemotaxis of activated murine macrophages (F4/80+/CD11b+)", "assay": "Ex vivo CCL2-induced chemotaxis of activated mouse macrophages (Transwell)", "format": "cell-based", "settings": "2 hours", "method": "Mouse monocyte migration in response to CVC treatment was assessed ex vivo in triplicate. TG was injected intraperitoneally into male C57BL/6 mice (n = 3; 8–10 weeks of age; Jackson Laboratory, USA) and activated macrophages were collected 48 hours later by peritoneal lavage. Chemotaxis was assayed using a Transwell® Chamber (Costar, USA) with a 5 μm-pore size polycarbonate filter, as previously described. Briefly, cells were incubated for 2 hours in the presence of 1 nM CCL2 and/or 1 μM CVC (dissolved in dimethyl sulfoxide with 0.5% acetic acid and diluted 1:1000 with serum-free Roswell Park Memorial Institute-1640 medium and 0.5% bovine serum albumin). Cells were harvested from the lower compartment and analyzed by flow cytometry to enumerate F4/80^+CD11b^+ macrophages using a 3-laser BD FACSCanto™ (BD Biosciences, Canada). Results were analyzed using FlowJo software (Tree Star Inc., USA).\nIn the peritonitis mouse model, one-way analysis of variance with post-hoc Dunnett’s test was performed, using GraphPad Prism® (GraphPad Software, Inc., USA), on differential cell counts obtained from lavage in treatment groups versus the vehicle-control group. For the ex vivo migration of mouse monocytes, statistical significance was determined by a Student’s t test."}, "[2]": {"system": "UUO-induced renal fibrosis", "assay": "Mouse model of UUO-induced renal fibrosis", "format": "in vivo", "settings": "for Reduction of UUO-induced increase in Collagen Volume Fraction (±SEM) vs UUO control: p < 0.05", "method": "Unilateral ureter obstruction is a commonly used experimental model of kidney injury, in which interstitial inflammation, tubular cell injury/death and fibrosis, ensue. The protocol was approved by Plato BioPharma, Inc. IACUC (PBI; approval number 2013–04). The care and use of animals was conducted in accordance with the NIH Guide for the Care and Use of Laboratory Animals (2010), […] Guidelines on Euthanasia (2007), Office of Laboratory Animal Welfare Institutional Animal Care and Use Committee Guidebook (2002), Public Health Service Policy on Humane Care and Use of Laboratory Animals (2002), PBI standard operating procedures on a) moribund sacrifice, b) vivarium maintenance and animal care, and c) animal handling and dosing. Anesthesia was performed by isoflurane […]; animals were euthanized by diaphragm laceration followed by heart laceration while under isoflurane anesthesia.\nMale CD-1 mice (n = 51; 7–8 weeks of age; Charles River Laboratories, USA) were allocated to weight-matched treatment groups on Day -1 (1 day prior to either sham [one group] or permanent right UUO surgery [five groups] via aseptic laparotomy). From Days -1 to 4, mice received phosphate-buffered saline (PBS) IP QD, apart from a positive-control group, which received 1D11 (anti-TGF-beta1 antibody) 3 mg/kg IP QD. From Days 0 to 5, mice received vehicle control (sham surgery, UUO-control and UUO+positive-control groups) or CVC 7 mg/kg/day (CVC7), CVC20 or CVC100 PO BID (S1 Table). The CVC100 group was terminated due to poor clinical condition (6/9 animals died and 3/9 euthanized prior to end of study). […]\nIn the UUO model, ten images/depth/kidney were assessed in a blinded fashion using Axio Imager.A2 (Zeiss, USA) light microscopy (at 200x magnification to enable 60–70% sampling of renal cortical area) and quantified by a composite Collagen Volume Fraction (CVF [% total area imaged]) score expressed as the average positive stain across three anatomically distinct ([…] apart) tissue sections, or depths, from the obstructed kidney.\nIn the UUO model, frozen renal cortical tissue biopsies were hydrolyzed and centrifuged, and the supernatant was analyzed by OD absorbance at 560 nm on a SpectraMax® 190 (Molecular Devices, USA). Standard curves for conversion of ODs to concentrations were generated using linear regression and sample concentrations were determined using SoftMax® Pro5 software (Molecular Devices, USA).\nIn the UUO model, mRNA expression levels in renal cortical tissue were evaluated using the QuantiGene® Plex 2.0 profiling platform (Affymetrix, USA). […]\nIn the UUO model, data are expressed as mean ±SEM. […]"}, "[3]": {"system": "CCR2 on monocytes", "design": "method as in earlier work", "settings": "at 6 nmol/L; human PBMC ex vivo; cited from earlier work"}, "[4]": {"system": "hepatic fibrosis scores (APRI, FIB-4, ELF)", "settings": "cited from earlier work"}, "[5]": {"system": "APAP-induced liver injury", "settings": "cited from earlier work"}, "[6]": {"system": "CCl4-induced liver injury", "settings": "cited from earlier work"}, "[7]": {"settings": "between Baseline and Week 24, maintained at Week 48"}, "[8]": {"settings": "acute APAP-induced liver injury"}}, "note": "Where a name gives a salt, the structure may show the parent alone."}
{"smiles": "CCCCOCCOc1ccc(-c2ccc3c(c2)/C=C(/C(=O)Nc2ccc([S@@+]([O-])Cc4cncn4CCC)cc2)CCCN3CC(C)C)cc1", "note": "[CVC, cenicriviroc mesylate]", "values": [{"measurement": "Average fold change in migrating cells (±SD) compared to untreated and unstimulated cells", "setting": "[1]; CCL2-stimulated (1 nM) cells treated with CVC 1 μM", "result": "0.8±0.2", "unit": "fold"}, {"measurement": "Average fold change in migrating cells (±SD) compared to untreated and unstimulated cells", "setting": "[1]; unstimulated cells treated with CVC 1 μM", "result": "0.7±0.4", "unit": "fold"}, {"measurement": "Effect on UUO-induced increase in obstructed kidney hydroxyproline content", "setting": "[2]; CVC7, CVC20 PO BID", "result": "did not affect"}, {"measurement": "Reduction of UUO-induced increase in Collagen Volume Fraction (±SEM) vs UUO control", "setting": "[2]; CVC7 PO BID Days 0-5", "result": "28.6%±8.8"}, {"measurement": "Inhibition of UUO-induced increases in obstructed renal cortical mRNA expression of fibrogenic genes", "setting": "[2]; CVC7 and CVC20, trend, relative to UUO control", "result": "did not reach statistical significance"}, {"measurement": "Reduction of UUO-induced increase in Collagen Volume Fraction (±SEM) vs UUO control", "setting": "[2]; CVC20 PO BID Days 0-5, single outlier removed", "result": "31.8%±6.8"}, {"measurement": "Receptor occupancy for CCR2 on monocytes", "setting": "[3]", "result": "~ 98%"}, {"measurement": "Enhanced liver fibrosis (ELF) scores", "setting": "[4]; Week 48, p < 0.0001", "result": "significant reduction"}, {"measurement": "Decrease in proportion of subjects with APRI score ≥0.5", "setting": "[4]; [7]", "result": 75, "unit": "%"}, {"measurement": "Decrease in proportion of subjects with FIB-4 score ≥1.45", "setting": "[4]; [7]", "result": 73, "unit": "%"}, {"measurement": "Infiltration of Ly6Chi monocyte-derived macrophages into the liver", "setting": "[5]; APAP model, preliminary data", "result": "significantly decreased"}, {"measurement": "ALT levels relative to vehicle control", "setting": "[5]; [8]", "result": "significant reduction"}, {"measurement": "Necrotic area relative to vehicle control", "setting": "[5]; [8]", "result": "significant reduction"}, {"measurement": "Infiltration of Ly6Chi monocyte-derived macrophages into the liver", "setting": "[6]; CCl4 model, preliminary data", "result": "significantly decreased"}, {"measurement": "Necrotic area", "setting": "[6]; acute CCl4 model", "result": "significant reduction"}]}
